Assays:
[1] = Long-term stability at 25° C./60% rh, content by HPLC; conditions: for 5-methyl-(6S)-tetrahydrofolic acid (% w/w) / Pyrazino-s-triazine derivative of 4α-hydroxy-5-methyl-THF (MeFox) (% w/w) / 5-methyl-(6S)-tetrahydrofolic acid (% rel.): 25° C./60% rh; for Pyrazino-s-triazine derivative of 4α-hydroxy-5-methyl-THF (MeFox) (% w/w): major degradation product; for 5-methyl-(6S)-tetrahydrofolic acid (% rel.): relative to initial value
Experimental: (§1) Amorphous monosodium salt of 5-methyl-(6S)-tetrahydrofolic acid prepared according to Reference Example 6, crystalline calcium salt of 5-methyl-(6S)-tetrahydrofolic acid, prepared according to literature procedures (EP 1 044 975 B1) and crystalline sodium salt of 5-methyl-(6S)-tetrahydrofolic acid, prepared as disclosed in Example 1, were stored at 25° C./60% rh. The content of 5-methyl-(6S)-tetrahydrofolic acid remaining in the samples was measured by HPLC at periodic intervals (% w/w). The content of 5-methyl-(6S)-tetrahydrofolic acid remaining was also compared to the initial value at the time of preparation (% rel.). Additionally the content of the pyrazino-s-triazine derivative of 4α-hydroxy-5-methyl-THF (MeFox), a major degradation product, was measured by HPLC at periodic intervals and disclosed as absolute values (% w/w).

[2] = Long-term stability at 40° C./75% rh, content by HPLC; assay type: physicochemical; conditions: for Pyrazino-s-triazine derivative of 4α-hydroxy-5-methyl-THF (MeFox) (% w/w): major degradation product; for 5-methyl-(6S)-tetrahydrofolic acid (% rel.): relative to initial value
Experimental: as §1, with “40° C./75%” for “25° C./60%”, “sample” for “samples”

[3] = purified/de-ionized water, room temperature, agitated and briefly sonicated
Experimental: The measurement of the kinetic solubility was conducted as described in the experimental part.
50 mg of crystalline sodium salt of 5-methyl-(6S)-tetrahydrofolic acid (according to Example 1) is weighed into a 4 ml glass vial with screw cap. Then 0.5 ml of purified/de-ionized water is added.
2.535 ml of purified/de-ionized water is added to the solid using an adjustable volumetric pipette. The mixture is vigorously agitated at room temperature and briefly sonicated.

Structure (SMILES)	5-methyl-(6S)-tetrahydrofolic acid (% w/w) ([1]; 0 months)	Pyrazino-s-triazine derivative of 4α-hydroxy-5-methyl-THF (MeFox) (% w/w) ([1]; 0 months)	5-methyl-(6S)-tetrahydrofolic acid (% rel.) ([1]; 0 months)	5-methyl-(6S)-tetrahydrofolic acid (% w/w) ([1]; 3 months)	Pyrazino-s-triazine derivative of 4α-hydroxy-5-methyl-THF (MeFox) (% w/w) ([1]; 3 months)	5-methyl-(6S)-tetrahydrofolic acid (% rel.) ([1]; 3 months)	5-methyl-(6S)-tetrahydrofolic acid (% w/w) ([1]; 6 months)	Pyrazino-s-triazine derivative of 4α-hydroxy-5-methyl-THF (MeFox) (% w/w) ([1]; 6 months)	5-methyl-(6S)-tetrahydrofolic acid (% rel.) ([1]; 6 months)	5-methyl-(6S)-tetrahydrofolic acid (% w/w) ([2]; 0 months)	Pyrazino-s-triazine derivative of 4α-hydroxy-5-methyl-THF (MeFox) (% w/w) ([2]; 0 months)	5-methyl-(6S)-tetrahydrofolic acid (% rel.) ([2]; 0 months)	5-methyl-(6S)-tetrahydrofolic acid (% w/w) ([2]; 3 months)	Pyrazino-s-triazine derivative of 4α-hydroxy-5-methyl-THF (MeFox) (% w/w) ([2]; 3 months)	5-methyl-(6S)-tetrahydrofolic acid (% rel.) ([2]; 3 months)	5-methyl-(6S)-tetrahydrofolic acid (% w/w) ([1]; 9 months)	Pyrazino-s-triazine derivative of 4α-hydroxy-5-methyl-THF (MeFox) (% w/w) ([1]; 9 months)	5-methyl-(6S)-tetrahydrofolic acid (% rel.) ([1]; 9 months)	5-methyl-(6S)-tetrahydrofolic acid (% w/w) ([2]; 6 months)	Pyrazino-s-triazine derivative of 4α-hydroxy-5-methyl-THF (MeFox) (% w/w) ([2]; 6 months)	further results
CN1c2c(nc(N)[nH]c2=O)NC[C@@H]1CNc1ccc(C(=O)N[C@@H](CCC(=O)[O-])C(=O)O)cc1.[Na+] [5-methyl-(6S)-tetrahydrofolic acid monosodium salt]	84.9	0.43	100.0	60.6	2.60	71.3	63.2	2.75	74.5	84.9	0.43	100.0	61.6	2.79	72.6						
CN1c2c([nH]c(N)nc2=O)NC[C@@H]1CNc1ccc(C(=O)N[C@@H](CCC(=O)[O-])C(=O)[O-])cc1.[Ca+2] [calcium salt of 5-methyl-(6S)-tetrahydrofolic acid]	80.7	0.20	100.0	79.0	0.84	97.9	77.7	0.90	96.3	80.7	0.20	100.0	78.5	1.01	97.2	78.5	0.85	97.3	78.0	0.96	5-methyl-(6S)-tetrahydrofolic acid (% w/w) ([1]; 12 months): 77.9 % w/w; Pyrazino-s-triazine derivative of 4α-hydroxy-5-methyl-THF (MeFox) (% w/w) ([1]; 12 months): 0.86 % w/w; 5-methyl-(6S)-tetrahydrofolic acid (% rel.) ([1]; 12 months): 96.5 % rel.; 5-methyl-(6S)-tetrahydrofolic acid (% rel.) ([2]; 6 months): 96.6 % rel.; 5-methyl-(6S)-tetrahydrofolic acid (% w/w) ([2]; 9 months): 78.8 % w/w; Pyrazino-s-triazine derivative of 4α-hydroxy-5-methyl-THF (MeFox) (% w/w) ([2]; 9 months): 0.93 % w/w; 5-methyl-(6S)-tetrahydrofolic acid (% rel.) ([2]; 9 months): 97.6 % rel.; 5-methyl-(6S)-tetrahydrofolic acid (% w/w) ([2]; 12 months): 77.8 % w/w; Pyrazino-s-triazine derivative of 4α-hydroxy-5-methyl-THF (MeFox) (% w/w) ([2]; 12 months): 0.95 % w/w; 5-methyl-(6S)-tetrahydrofolic acid (% rel.) ([2]; 12 months): 96.3 % rel.; solubility (kinetic solubility) in water [3]: smaller than 10 mg per 1 ml of water
CN1c2c(nc(N)[nH]c2=O)NC[C@@H]1CNc1ccc(C(=O)N[C@@H](CCC(=O)[O-])C(=O)[O-])cc1.[Na+].[Na+] [sodium salt of 5-methyl-(6S)-tetrahydrofolic acid]	82.3	0.07	100.0	80.0	1.01	97.3	78.6	1.31	95.5	82.3	0.07	100.0	78.6	1.52	95.6	74.7	1.42	90.8	77.3	1.69	stability over a long period of time compared to the crystalline calcium salt ([1]; summary of Tables 1 to 4 (25° C./60% rh and 40° C./75% rh)): comparable stability; 5-methyl-(6S)-tetrahydrofolic acid (% rel.) ([2]; 6 months): 94.0 % rel.; 5-methyl-(6S)-tetrahydrofolic acid (% w/w) ([2]; 9 months): 77.9 % w/w; Pyrazino-s-triazine derivative of 4α-hydroxy-5-methyl-THF (MeFox) (% w/w) ([2]; 9 months): 1.51 % w/w; 5-methyl-(6S)-tetrahydrofolic acid (% rel.) ([2]; 9 months): 94.7 % rel.; solubility (kinetic solubility) in water [3]: greater than 100 mg per 1 ml of water

From patent US11377448B2, “Crystalline sodium salt of 5-methyl-(6S)-tetrahydrofolic acid” (priority 2017, dated 2022)
